Our source for the IC50 values is US11192865B2, “Benzosulfonyl compounds” (Vivace Therapeutics, Inc., priority 2017, dated 2021).

Structures are written as SMILES.

This assay has as its system 8XTBD luciferase reporter. Briefly: YAP Reporter Assay. It counts as cell-based. Conditions: Homo sapiens, HEK-293T; HEK293T cells stably transfected with 8XTBD luciferase reporter and pRLTK; 24-hr incubation; starting from 3 μM, 1:3 dilution, 10 points; read-out: Firefly Luciferase IC50. The procedure, abridged:
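HEK293T cells stably carrying the 8XTBD firefly luciferase reporter and TK-renilla control received compounds at a 10-point, 1:3 series from 3 μM (final) in quadruplicate. After 24 h at 37° C, Dual-Glo luminescence was read. IC50 and maximal inhibition were reported separately for firefly and renilla signals.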
On the technique in general: A reporter such as luciferase makes a cellular process visible.

As a reminder, the IC50 is the concentration at which inhibition is half-maximal.

For `CNS(=O)(=O)c1ccc(Nc2ccc(Cl)c(C(F)(F)F)c2)c(-c2cn(C)cn2)c1` [Compound 147, 4-[4-Chloro-3-(trifluoromethyl)anilino]-N-methyl-3-(1-methylimidazol-4-yl)benzenesulfonamide], the IC50 is at most 0.1 µM.
As for `CNS(=O)(=O)c1ccc(Nc2cccc(Cl)c2)c(-c2cn(C)cn2)c1` [Compound 143, 4-(3-Chloroanilino)-N-methyl-3-(1-methylimidazol-4-yl)benzenesulfonamide], the figure is at most 0.1 µM; as for `CCn1cnc(-c2cc(S(=O)(=O)NC)ccc2NC2CCCCC2)c1` [Compound 112, 4-(cyclohexylamino)-3-(1-ethyl-1H-imidazol-4-yl)-N-methylbenzenesulfonamide], at most 0.1 µM; as for `CNS(=O)(=O)c1ccc(NC2CCCCC2)c(-c2nnc(C)o2)c1` [Compound 105, 4-(cyclohexylamino)-N-methyl-3-(5-methyl-1,3,4-oxadiazol-2-yl)benzenesulfonamide], at most 0.1 µM.
With `CNS(=O)(=O)c1ccc(Nc2ccc(OC(F)(F)F)cc2)c(-c2nnnn2C)c1` [Compound 99, N-methyl-3-(1-methyl-1H-tetrazol-5-yl)-4-((4-(trifluoromethoxy)phenyl)amino)benzenesulfonamide] the figure was over 3 µM.
As for `CS(=O)(=O)c1ccc(NC2CCCCC2)c(-n2ccnc2)c1` [Compound 11, N-cyclohexyl-2-(1H-imidazol-1-yl)-4-(methylsulfonyl)aniline], the figure is over 3 µM; as for `CNS(=O)(=O)c1ccc(NC2CCCCC2)c(-c2nnn(C3CN(C(C)C)C3)n2)c1` [Compound 52, 4-(cyclohexylamino)-3-(2-(1-isopropylazetidin-3-yl)-2H-tetrazol-5-yl)-N-methylbenzenesulfonamide], 0.1 to 1 µM.
For `CNS(=O)(=O)c1ccc(NC2CCCCC2)c(-c2nnn(C3CCCN(C(C)=O)C3)n2)c1` (stereo not shown) [Compound 53, 3-(2-(1-acetylpiperidin-3-yl)-2H-tetrazol-5-yl)-4-(cyclohexylamino)-N-methylbenzenesulfonamide], the concentration for half-maximal inhibition (IC50) was in the range of 0.1 to 1 µM.
With `CNS(=O)(=O)c1ccc(NC2CCCCC2)c(-c2ncccn2)c1` [Compound 56, 4-(cyclohexylamino)-N-methyl-3-(pyrimidin-2-yl)benzenesulfonamide] the figure was at most 0.1 µM; with `CNS(=O)(=O)c1ccc(NC2CCCCC2)c(-c2nnn(C3CCN(c4cccnc4)C3)n2)c1` (stereo not shown) [Compound 68, 4-(cyclohexylamino)-N-methyl-3-(2-(1-(pyridin-3-yl)pyrrolidin-3-yl)-2H-tetrazol-5-yl)benzenesulfonamide], 0.1 to 1 µM; with `CNS(=O)(=O)c1ccc(Nc2cc(Cl)c(Cl)c(Cl)c2)c(-c2cn(C)cn2)c1` [Compound 145, N-methyl-3-(1-methylimidazol-4-yl)-4-(3,4,5-trichloroanilino)benzenesulfonamide], at most 0.1 µM.
With `CNS(=O)(=O)c1ccc(NC2CCCCC2)c(-c2nnn(-c3ccccc3F)n2)c1` [Compound 23, 4-(cyclohexylamino)-3-(2-(2-fluorophenyl)-2H-tetrazol-5-yl)-N-methylbenzenesulfonamide] the figure was 0.1 to 1 µM; with `CNS(=O)(=O)c1ccc(NC2CCCCC2)c(-n2ccnn2)c1` [Compound 89, 4-(cyclohexylamino)-N-methyl-3-(1H-1,2,3-triazol-1-yl)benzenesulfonamide], over 3 µM; with `CNS(=O)(=O)c1ccc(Nc2ccc(Cl)cc2)c(-c2cn(C)cn2)c1` [Compound 139, 4-(4-chloroanilino)-N-methyl-3-(1-methylimidazol-4-yl)benzenesulfonamide], at most 0.1 µM.
As for `CNS(=O)(=O)c1ccc(NC2CCCCC2)c(-c2nnn(C)n2)c1` [Compound 22, 4-(cyclohexylamino)-N-methyl-3-(2-methyl-2H-tetrazol-5-yl)benzenesulfonamide], the figure is at most 0.1 µM; as for `CNS(=O)(=O)c1ccc(NC2CCCCC2)c(-c2nnn(C3CCNC3)n2)c1` (stereo not shown) [Compound 35, 4-(cyclohexylamino)-N-methyl-3-(2-(pyrrolidin-3-yl)-2H-tetrazol-5-yl)benzenesulfonamide], over 3 µM; as for `CNS(=O)(=O)c1ccc(NC2CCCCC2)c(-c2cccc(N(C)C)n2)c1` [Compound 83, 4-(cyclohexylamino)-3-(6-(dimethylamino)pyridin-2-yl)-N-methylbenzenesulfonamide], over 3 µM.
Turning to `Cn1cc(-c2cc(S(C)(=O)=O)ccc2NC2CCCCC2)nn1` [Compound 6, N-cyclohexyl-2-(1-methyl-1H-1,2,3-triazol-4-yl)-4-(methylsulfonyl)aniline], the half-maximal inhibitory concentration (IC50) is 0.1 to 1 µM.
In the case of `CNS(=O)(=O)c1ccc(NC2CCCCC2)c(-c2nnn(C3CCCN(C(C)C)C3)n2)c1` (stereo not shown) [Compound 61, 4-(cyclohexylamino)-3-(2-(1-isopropylpiperidin-3-yl)-2H-tetrazol-5-yl)-N-methylbenzenesulfonamide], the IC50 was over 3 µM.
As for `CNS(=O)(=O)c1ccc(Nc2cccc(OC(F)(F)F)c2)c(-c2nnn(C)n2)c1` [Compound 94, N-methyl-3-(2-methyl-2H-tetrazol-5-yl)-4-((3-(trifluoromethoxy)phenyl)amino)benzenesulfonamide], the figure is at most 0.1 µM.
With `CNS(=O)(=O)c1ccc(Nc2ccc(C(F)(F)F)cc2)c(-c2nnnn2C)c1` [Compound 96, N-methyl-3-(1-methyl-1H-tetrazol-5-yl)-4-((4-(trifluoromethyl)phenyl)amino)benzenesulfonamide] the figure was over 3 µM; with `CCCn1nnc(-c2cc(S(=O)(=O)NC)ccc2NC2CCCCC2)n1` [Compound 15, 4-(cyclohexylamino)-N-methyl-3-(2-propyl-2H-tetrazol-5-yl)benzenesulfonamide], at most 0.1 µM.
As for `CNS(=O)(=O)c1ccc(NC2CCCCC2)c(-c2nnn(Cc3ccccc3F)n2)c1` [Compound 19, 4-(cyclohexylamino)-3-(2-(2-fluorobenzyl)-2H-tetrazol-5-yl)-N-methylbenzenesulfonamide], the figure is at most 0.1 µM; as for `CNS(=O)(=O)c1ccc(NC2CCCCC2)c(-c2nnn(C3CCCN(C(=O)OC(C)(C)C)C3)n2)c1` (stereo not shown) [Compound 59, tert-butyl 3-(5-(2-(cyclohexylamino)-5-(N-methylsulfamoyl)phenyl)-2H-tetrazol-2-yl)piperidine-1-carboxylate], 0.1 to 1 µM.
With `CNS(=O)(=O)c1ccc(Nc2cccc(Oc3ccccc3)c2)c(-c2nnn(C)n2)c1` [Compound 134, N-methyl-3-(2-methyltetrazol-5-yl)-4-(3-phenoxyanilino)benzenesulfonamide], the 50% inhibitory concentration (IC50) fell in the range of 0.1 to 1 µM.
As for `CNS(=O)(=O)c1ccc(NC2CCCCC2)c(-c2cc(N)ccn2)c1` [Compound 84, 3-(4-aminopyridin-2-yl)-4-(cyclohexylamino)-N-methylbenzenesulfonamide], the figure is 0.1 to 1 µM.
As for `CNS(=O)(=O)c1ccc(NC2CCCCC2)c(-c2nnn(C3CCN(C(C)=O)CC3)n2)c1` [Compound 31, 3-(2-(1-acetylpiperidin-4-yl)-2H-tetrazol-5-yl)-4-(cyclohexylamino)-N-methylbenzenesulfonamide], the figure is 0.1 to 1 µM.
With `CNS(=O)(=O)c1ccc(Nc2cc(Cl)cc(Cl)c2)c(-c2cn(C)cn2)c1` [Compound 142, 4-(3,5-dichloroanilino)-N-methyl-3-(1-methylimidazol-4-yl)benzenesulfonamide] the figure was at most 0.1 µM; with `CNS(=O)(=O)c1ccc(Nc2ccc(SC(F)(F)F)cc2)c(-c2cn(C)cn2)c1` [Compound 144, N-methyl-3-(1-methylimidazol-4-yl)-4-[4-(trifluoromethylsulfanyl)anilino] benzenesulfonamide], at most 0.1 µM; with `CNS(=O)(=O)c1ccc(Nc2cccc(F)c2F)c(-c2nnnn2C)c1` [Compound 106, 4-((2,3-difluorophenyl)amino)-N-methyl-3-(1-methyl-1H-tetrazol-5-yl)benzenesulfonamide], over 3 µM.
For `CNS(=O)(=O)c1ccc(Nc2cc(F)ccc2F)c(-c2nnn(C)n2)c1` [Compound 110, 4-((2,5-difluorophenyl)amino)-N-methyl-3-(2-methyl-2H-tetrazol-5-yl)benzenesulfonamide], the half-maximal inhibitory concentration (IC50) was at most 0.1 µM.
With `CNS(=O)(=O)c1ccc(NC2CCCCC2)c(-c2nnn(C(C)C)n2)c1` [Compound 26, 4-(cyclohexylamino)-3-(2-isopropyl-2H-tetrazol-5-yl)-N-methylbenzenesulfonamide] the figure was at most 0.1 µM; with `CNS(=O)(=O)c1ccc(NC2CCCCC2)c(-c2nnn(C3CCNCC3)n2)c1` [Compound 30, 4-(cyclohexylamino)-N-methyl-3-(2-(piperidin-4-yl)-2H-tetrazol-5-yl)benzenesulfonamide], over 3 µM; with `CNS(=O)(=O)c1ccc(NC2CCCCC2)c(-c2nnn(Cc3ccc(F)cc3)n2)c1` [Compound 41, 4-(cyclohexylamino)-3-(2-(4-fluorobenzyl)-2H-tetrazol-5-yl)-N-methylbenzenesulfonamide], 0.1 to 1 µM.
As for `CNS(=O)(=O)c1ccc(Nc2ccccc2C(F)(F)F)c(-c2nnn(C)n2)c1` [Compound 93, N-methyl-3-(2-methyl-2H-tetrazol-5-yl)-4-((2-(trifluoromethyl)phenyl)amino)benzenesulfonamide], the figure is over 3 µM; as for `CNS(=O)(=O)c1ccc(NC2CCCCC2)c(-c2nnn(C3CCN(S(C)(=O)=O)CC3)n2)c1` [Compound 32, 4-(cyclohexylamino)-N-methyl-3-(2-(1-(methylsulfonyl)piperidin-4-yl)-2H-tetrazol-5-yl)benzenesulfonamide], over 3 µM.
As for `CNS(=O)(=O)c1ccc(NC2CCCCC2)c(-c2nnn(C3CC3)n2)c1` [Compound 71, 4-(cyclohexylamino)-3-(2-cyclopropyl-2H-tetrazol-5-yl)-N-methylbenzene sulfonamide], the figure is over 3 µM.
